Measured values taken from patent publication US4501750A, “Thiazole compounds, a process for preparing same and a pharmaceutical composition containing the thiazole compounds” (Mitsui Toatsu Kaguku Kabushiki Kaisha, priority 1981, dated 1985).
Where a name gives a salt, the structure may show the parent alone.

What was measured:
adjuvant arthritis = test: Adjuvant Arthritis Test (Mycobacterium tuberculosis adjuvant); format: in vivo, SD male rats; conditions: 5 mg per Kg subcutaneously, 9 times in total; left hind leg; * P<0.05, ** P<0.01 vs control
Text: The adjuvant arthritis in rats caused by the injection of a Mycobacterium tuberculosis adjuvant is often utilized for a model test of chronic rheumatoid arthritis in human.
The mechanism of manifestation of this disease has not completely been elucidated, but it is known that the cellular immunity plays an important role. The immuno-modulating activity of the compounds of the present invention was investigated in accordance with this known adjuvant arthritis test.
8-Week-old SD male rats were used for the test. In 0.1 ml of fluid paraffin, 0.4 mg of dry-dead cells of Mycobacterium tuberculosis were suspended, and the suspension was injected under the heel skin of the right hind leg of each rat. Each of the compounds of the present invention was subcutaneously administered 9 times in total before and after the injection of the adjuvant. Each of the compounds of the present invention was dissolved or suspended in a 0.2% solution of carboxymethylcellulose in physiological saline and administered to each rat at a dose of 5 mg per Kg of the body weight. The swollen volume of the left hind leg was measured during the period of from the day of injection to the day of completion of the test, and the swelling ratio was calculated. For comparison, a similar test was conducted using Levamisole hydrochloride. F.t tests were carried out on the test results obtained.

[1] = system: delayed hypersensitivity induced by picryl chloride; test: Reinforcement Test of Delayed Hypersensitivity (picryl chloride, pinna thickness); format: in vivo, ICR male mice; conditions: 50 mg per Kg orally, simultaneously with sensitization; 24 hours after challenging; average of both pinnae of eight mice; * P<0.05, ** P<0.01 vs control
Text: The delayed hypersensitivity induced on a mouse when picryl chloride(2-chloro-1,3,5-trinitrobenzene) is coated on the skin of the mouse is known as a typical cellular immunity.
The above test system was used for the reinforcement tests of the delayed hypersensitivity.
Groups of eight ICR male mice, each having a body weight of about 30 g, were used for the test.
Sensitization was effected by coating a 3% solution of picryl chloride in a 4/1 mixture of olive oil and acetone on the shaved abdomen of each of the mice.
Simultaneously with the sensitization, a solution or suspension of a compound of the present invention dissolved or suspended in a 0.2% solution of carboxymethylcellulose in a physiological saline was orally administered to the mouse at a dose of 50 mg per Kg of its body weight. To each mouse of a control group, a 0.2% carboxymethylcellulose solution was similarly administered in a physiological saline.
The delayed hypersensitivity was induced 7 days after the sensitization by pinching each of the pinnae of each mouse with a pair of forceps whose tip portions were wrapped with a felt impregnated with a 1% solution of picryl chloride in olive oil and coating the pinnae with the solution. The thickness of each pinna was measured before the challenging and 24 hours after the challenging and the ratio of increase of the thickness (average value of both of the pinnae of the eight mice) is shown in Table 1.
For comparison, a similar test was carried out using Levamisole hydrochloride.
F.t tests were carried out on the thus-obtained test results.

[2] = Acute Toxicity Test through Oral Administration; format: in vivo; conditions: ddY male mice, 7 days observation
Text: To each of a group of five ddY male mice, was orally administered a medicine dissolved or suspended in physiological saline.

SMILES | Swell suppression ratio to control group (average value from 16th to 20th days) (adjuvant arthritis) | Ratio of Increase of Pinna Thickness [1] | estimated LD50 [2]
CC(Cl)C(=O)Nc1nc(-c2ccccc2)cs1 (stereo not drawn) [drawing 16] | 12.1% |  | 
CC(Cl)C(=O)Nc1nc(-c2ccccc2)cs1 (stereo not drawn) [drawing 10] |  | 36.1% | 
CSc1sc(NC(=O)C(=O)Nc2nc(-c3ccccc3)c(SC)s2)nc1-c1ccccc1 [drawing 15] | 35.5% |  | 
O=C(Nc1nc(-c2ccc(Cl)cc2)cs1)C(=O)Nc1nc(-c2ccc(Cl)cc2)cs1 [drawing 7] |  | 29.5% | 
CC(Br)C(=O)Nc1nc(-c2ccccc2)cs1 (stereo not drawn) [drawing 11] |  | 32.9% | 
O=C(Nc1nc(-c2ccccc2)cs1)C(=O)Nc1nc(-c2ccccc2)cs1 [drawing 12] | 51.0% |  | 
COc1ccc(-c2csc(NC(=O)C(=O)Nc3nc(-c4ccc(OC)cc4)cs3)n2)cc1 [drawing 14] | 14.1% |  | 
CC(Br)C(=O)Nc1nc(-c2ccccc2)cs1 (stereo not drawn) [drawing 17] | 20.0% |  | 
CSc1sc(NC(=O)C(=O)Nc2nc(-c3ccccc3)c(SC)s2)nc1-c1ccccc1 [drawing 9] |  | 27.3% | 
O=C(Nc1nc(-c2ccccc2)cs1)C(=O)Nc1nc(-c2ccccc2)cs1 [drawing 6] |  | 30.3% | 
O=C(Nc1nc(-c2ccc(Cl)cc2)cs1)C(=O)Nc1nc(-c2ccc(Cl)cc2)cs1 [drawing 13] | 51.9% |  | 
c1ccc([C@H]2CN3CCSC3=N2)cc1 [Levamisole.HCl, Levamisole hydrochloride, reference compound] | 19.8% | 31.2% | 200 to 300 mg/kg
COc1ccc(-c2csc(NC(=O)C(=O)Nc3nc(-c4ccc(OC)cc4)cs3)n2)cc1 [drawing 8] |  | 36.5% | 
